Structures can show the parent of a compound that is named as a salt.
What was measured:
[1] = Volatility of perfuming compounds (Tables 4 to 10), with top/middle/bottom note type; format: physicochemical
Summary of the method: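 Volatility is expressed in μg/l in air. Top notes are 70,000 to 100 μg/l, middle notes 99 to 50 μg/l, and bottom notes 49 to 0.1 μg/l. Compounds are grouped by olfactive family: watery, green, fruity, citrus, sweet, gourmand and woody.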

[2] = Odor threshold and odor value of perfuming compounds (Tables 4 to 10)
[3] = Table 10, perfuming compounds having a woody note, note type by volatility
[4] = Table 7, citrus note, top, middle or bottom note
[5] = Table 7, citrus note, equals volatility divided by odor threshold
[6] = Table 4, watery note, top, middle or bottom note
[7] = Table 4, watery note, equals volatility divided by odor threshold
[8] = Table 6, perfuming compounds having a fruity note
[9] = Table 6, perfuming compounds having a fruity note, note type by volatility
[10] = note type (Top/Middle/Bottom) by volatility, perfuming compounds having a green note
[11] = perfuming compounds having a green note
[12] = Table 8, perfuming compounds having a sweet note
[13] = Table 8, perfuming compounds having a sweet note, note type by volatility
[14] = Table 9, perfuming compounds having a gourmand note, note type by volatility

CC(=O)OC1CCC2C(C)(C)CCCC2(C)C1 (stereo not shown) [5,5,8a-trimethyldecahydro-2-naphthalenyl acetate]
Type [1, 3]: Bottom
Volatility ([1]; Table 10, woody note): 14.41 μg/l air
Odor Threshold ([2]; Table 10, woody note): 4.19E−04 μg/l air

9-ETHYLIDENE-3-OXATRICYCLO[6.2.1.0(2,7)]UNDECAN-4-ONE (A) + 10-ETHYLIDENE-3-OXATRICYCLO[6.2.1.0(2,7)] . . . (B)
Volatility (μg/l air) ([1]; Table 7, citrus note): 2.10 μg/l air
Type [1, 4]: Bottom
Odor Threshold (μg/l air) ([2]; Table 7, citrus note): 1.42E−04 μg/l air
Odor Value [2, 5]: 1.48E+04

3-(3,3-dimethyl-2,3-dihydro-1H-inden-5-yl)propanal (A) + 3-(1,1-dimethyl-2,3-dihydro-1H-inden-4-yl)propanal (B) + 3-(1,1-dimethyl-2,3-dihydro-1H-inden-5-yl)propanal (C)
Volatility (μg/l air) ([1]; Table 4, watery note): 13.68 μg/l air
Type [1, 6]: bottom (perfuming compounds having a volatility ranging from 49 to 0.1 μg/l in air are referred to as “bottom notes”)
Volatility (μg/l air) ([1]; Table 7, citrus note): 13.68 μg/l air
Type [1, 4]: Bottom
Odor Threshold (μg/l air) ([2]; Table 4, watery note): 4.00E−03 μg/l air
Odor Value [2, 7]: 3.42E+03
Odor Threshold (μg/l air) ([2]; Table 7, citrus note): 4.00E−03 μg/l air
Odor Value [2, 5]: 3.42E+03

CCCCCCCOC(C)=O [heptyl acetate]
Volatility [1, 8]: 2814.34 μg/l air
Type [1, 9]: TOP (perfuming compounds having a volatility ranging from 70,000 to 100 μg/l in air are referred to as “top notes”)
Volatility (μg/l air) ([1]; Table 7, citrus note): 2814.34 μg/l air
Type [1, 4]: Top
Odor Threshold (μg/l air) ([2]; Table 7, citrus note): 1.32E−01 μg/l air
Odor Value [2, 5]: 2.14E+04

CCCCCCOC(C)=O [HEXYL ACETATE]
Volatility [1, 8]: 2316.04 μg/l air
Type [1, 9]: TOP (perfuming compounds having a volatility ranging from 70,000 to 100 μg/l in air are referred to as “top notes”)
Type [1, 10]: Top
Volatility (μg/l air) [1, 11]: 2316.04 μg/l air
Odor Threshold (μg/l air) [2, 11]: 1.32E−01 μg/l air

(2R)-2-methyl-4-[(1R)-2,2,3-trimethyl-3-cyclopenten-1-yl]-4-pentenal (A) + (2S)-2-methyl-4-[(1R)-2,2,3-trimethyl-3-cyclopenten-1-yl]-4-pentenal (B)
Volatility (μg/l air) ([1]; Table 4, watery note): 63.49 μg/l air
Type [1, 6]: middle (perfuming compounds having a volatility ranging from 99 to 50 μg/l in air are referred to as “middle notes”)
Odor Threshold (μg/l air) ([2]; Table 4, watery note): 2.22E−03 μg/l air
Odor Value [2, 7]: 2.86E+04

C=C1CCCC(C)(C)C1C(=O)/C=C/C (racemic)
Volatility [1, 8]: 152.99 μg/l air
Type [1, 9]: TOP (perfuming compounds having a volatility ranging from 70,000 to 100 μg/l in air are referred to as “top notes”)
Volatility [1, 12]: 152.99 μg/l air
Type [1, 13]: Top
Volatility ([1]; Table 9, gourmand note): 152.99 μg/l air
Type [1, 14]: Top
Odor Threshold [2, 12]: 3.73E−03 μg/l air
Odor Value [2, 12]: 4.10E+04
Odor Threshold ([2]; Table 9, gourmand note): 3.73E−03 μg/l air

CC(C)=CCCC(C)CCOC=O (racemic) [(+−)-3,7-DIMETHYL-6-OCTENYL FORMATE]
Volatility [1, 8]: 262.84 μg/l air
Type [1, 9]: TOP (perfuming compounds having a volatility ranging from 70,000 to 100 μg/l in air are referred to as “top notes”)
Type [1, 10]: Top
Volatility (μg/l air) [1, 11]: 262.84 μg/l air
Odor Threshold (μg/l air) [2, 11]: 1.72E−03 μg/l air

CCc1occc(=O)c1O [2-ETHYL-3-HYDROXY-4(4H)-PYRANONE]
Volatility [1, 8]: 48.86 μg/l air
Type [1, 9]: Bottom
Volatility [1, 12]: 48.86 μg/l air
Type [1, 13]: Bottom
Odor Threshold [2, 8]: 6.45E−05 μg/l air
Odor Value [2, 8]: 7.57E+05
Odor Threshold [2, 12]: 6.45E−05 μg/l air
Odor Value [2, 12]: 7.57E+05

CCOC(C)OC1CCCCCCCCCCC1 (racemic) [(+−)-(1-ethoxyethoxy)cyclododecane]
Type [1, 3]: Bottom
Volatility ([1]; Table 10, woody note): 5.04 μg/l air
Odor Threshold ([2]; Table 10, woody note): 2.51E−02 μg/l air

CCCCCC(C#N)CCC (racemic) [(+−)-2-propylheptanenitrile]
Volatility [1, 8]: 439.00 μg/l air
Type [1, 9]: TOP (perfuming compounds having a volatility ranging from 70,000 to 100 μg/l in air are referred to as “top notes”)
Volatility (μg/l air) ([1]; Table 7, citrus note): 439.00 μg/l air
Type [1, 4]: Top
Odor Threshold (μg/l air) ([2]; Table 7, citrus note): 7.83E−02 μg/l air
Odor Value [2, 5]: 5.61E+03

C[C@@H]1CC[C@H]2C(C)(C)[C@H]3C[C@@]12C[C@@H]1OC(C)(C)O[C@@]13C
Type [1, 3]: Bottom
Volatility ([1]; Table 10, woody note): 0.00 μg/l air
Odor Threshold ([2]; Table 10, woody note): 3.90E−06 μg/l air

CC/C=C(\C)C(O)CCCCC (racemic) [(+−)-(E)-4-METHYL-3-DECEN-5-OL]
Volatility [1, 8]: 64.15 μg/l air
Type [1, 9]: Middle
Type [1, 10]: Middle
Volatility (μg/l air) [1, 11]: 64.15 μg/l air
Odor Threshold [2, 8]: 6.78E−04 μg/l air
Odor Value [2, 8]: 9.46E+04
Odor Threshold (μg/l air) [2, 11]: 6.78E−04 μg/l air

8(9)-METHOXY-TRICYCLO[5.2.1.0(2,6)]DECANE-3(4)-CARBALDEHYDE
Volatility (μg/l air) ([1]; Table 4, watery note): 5.87 μg/l air
Type [1, 6]: bottom (perfuming compounds having a volatility ranging from 49 to 0.1 μg/l in air are referred to as “bottom notes”)
Volatility [1, 8]: 5.87 μg/l air
Type [1, 9]: Bottom
Volatility (μg/l air) ([1]; Table 7, citrus note): 5.87 μg/l air
Type [1, 4]: Bottom
Odor Threshold (μg/l air) ([2]; Table 4, watery note): 4.02E−05 μg/l air
Odor Value [2, 7]: 1.46E+05
Odor Threshold [2, 8]: 4.02E−05 μg/l air
Odor Value [2, 8]: 1.46E+05
Odor Threshold (μg/l air) ([2]; Table 7, citrus note): 4.02E−05 μg/l air
Odor Value [2, 5]: 1.46E+05

CC1OCCC12NCCS2 (racemic)
Volatility [1, 12]: 52.47 μg/l air
Type [1, 13]: Middle
Odor Threshold [2, 12]: 2.53E−06 μg/l air
Odor Value [2, 12]: 2.07E+07

C/C=C/C(=O)[C@@H]1[C@@H](C)C=CCC1(C)C (racemic)
Volatility [1, 12]: 143.53 μg/l air
Type [1, 13]: Top
Volatility ([1]; Table 9, gourmand note): 143.53 μg/l air
Type [1, 14]: Top
Odor Threshold [2, 12]: 1.70E−05 μg/l air
Odor Value [2, 12]: 8.44E+06
Odor Threshold ([2]; Table 9, gourmand note): 1.70E−05 μg/l air
